Here are results for 37 compounds from US20250136556A1, “NOVEL MODULATORS OF THE ARYL HYDROCARBON RECEPTOR AND METHODS OF USE THEREOF” (Allianthera (Suzhou) Biopharmaceutical Co., Ltd., priority 2021, published 2025).

Holding throughout (type): cell-based
Experiment [1] concerns IL-6 gene expression in human primary M1 macrophage cells. Kind of experiment: AHR-regulated IL-6 inhibition in human primary M1 macrophage (qPCR). The note with it: LPS/IFN-gamma/GM-CSF, 24 hours; for IC50: read-out: M1 assay IL6 -IC50. The protocol:
Human M1 macrophage was differentiated from PBMC. Briefly, at day 1, monocytes were isolated from human PBMC using EasySe Human Monocyte Enrichment Kit without CD16 Depletion (Stemcell, 19058). The isolated monocytes were seeded at 3×10^7 cells in 15 cm dish using 30 ml medium containing 50 ng/ml GM-CSF (R&D, 215-GM-050/CF). At day 5, 30 ml fresh medium containing 50 ng/ml GM-CSF was added. At day 8, 1.5×10^5 cells/well were re-seeded into 24 wells plate, and 500 ul medium containing 10 ng/ml LPS (Sigma, L7770), 20 ng/ml IFN-gamma (PeproTech, 300-02), 50 ng/ml GM-CSF and the test compounds was added. […] The IL-6 expression was inhibited with AHR agonists described in literature as the positive inhibition control, alternatively the un-stimulated cells were used as the negative inhibition control. […] The primers for human GAPDH (F: […]; R: […]) and human IL-6 (F: […]; R: […]) were used to analyze fold expression of IL-6 of GAPDH by quantitative PCR.
(In general: In qPCR the cycle at which signal appears reflects the starting amount.)

The target in experiment [2] is T1, Human Aryl Hydrocarbon Receptor (AHR) (Homo sapiens, UniProt P35869).
T1 construct: purchased INDIGO Bioscience IB06001-32; host or cells: AHR Reporter Cell (proprietary kit cells)
T1 sequence (P35869 11-848): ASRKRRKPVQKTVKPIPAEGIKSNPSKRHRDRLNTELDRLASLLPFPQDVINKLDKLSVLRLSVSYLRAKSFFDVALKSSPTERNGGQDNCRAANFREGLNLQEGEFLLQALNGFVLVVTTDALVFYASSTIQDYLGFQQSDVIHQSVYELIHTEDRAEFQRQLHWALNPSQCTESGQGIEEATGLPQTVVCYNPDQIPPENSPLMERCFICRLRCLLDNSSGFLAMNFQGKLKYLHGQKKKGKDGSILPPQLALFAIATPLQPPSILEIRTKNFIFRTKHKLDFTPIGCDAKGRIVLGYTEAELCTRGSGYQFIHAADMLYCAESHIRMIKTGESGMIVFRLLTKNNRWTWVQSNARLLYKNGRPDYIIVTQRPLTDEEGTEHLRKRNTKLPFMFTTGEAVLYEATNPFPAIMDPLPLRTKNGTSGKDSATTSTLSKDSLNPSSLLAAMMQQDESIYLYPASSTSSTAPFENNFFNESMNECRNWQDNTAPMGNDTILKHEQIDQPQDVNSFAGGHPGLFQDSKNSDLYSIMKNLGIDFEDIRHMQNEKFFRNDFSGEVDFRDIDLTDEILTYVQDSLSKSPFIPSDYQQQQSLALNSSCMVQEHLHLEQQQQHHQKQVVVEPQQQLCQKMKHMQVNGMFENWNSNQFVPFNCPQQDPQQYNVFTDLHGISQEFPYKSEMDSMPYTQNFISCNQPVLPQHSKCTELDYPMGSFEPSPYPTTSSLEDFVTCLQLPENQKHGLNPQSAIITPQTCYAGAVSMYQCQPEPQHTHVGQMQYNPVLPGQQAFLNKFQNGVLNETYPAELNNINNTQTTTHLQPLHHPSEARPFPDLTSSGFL
Kind of experiment: AHR agonist reporter assay in human cell line (INDIGO luciferase reporter).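 For all read-outs here: firefly luciferase luminescence read on a plate reader, values normalized against positive and negative controls.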 The conditions noted are these: reporter cells; for EC50: 24 hours incubation.
Method: The AHR reporter assay was performed following the protocol of the Human Aryl Hydrocarbon Receptor (AHR) Reporter Assay System (INDIGO Bioscience, #IB06001-32). AHR Reporter Cell was thawed and pre-incubated in Cell Recovery Medium (CRM) for 6 hours. […] Following 24 hours incubation, the media was removed and Luciferase Detection Reagent (LDR) added. The firefly luciferase activity was quantified using a plate reader. Results were normalized by positive and negative controls.

Experiment [3] has as its system Human Nuclear Factor (erythroid-derived2)-like 2 (Nrf2). Description: Nrf2 transcription factor activity reporter assay in human cell line (INDIGO luciferase reporter). The note with it: reporter cells, 24 hours incubation, second line of cell; read-out: Nrf2 EC50, second line of cell (head does not name it). How it is done: The Nrf2 reporter assay was performed following the protocol of the Human Nuclear Factor (erythroid-derived2)-like 2 (Nrf2) Reporter Assay System (INDIGO Bioscience, #IB10001). Nrf2 Reporter Cell was thawed and pre-incubated in Cell Recovery Medium (CRM) for 6 hours. The media was then removed and the cells were incubated with Compound Screening Medium (CSM) in the absence (negative control) or presence of increasing concentrations of test compounds (typical dilution: 128 pM, 640 pM, 3.2 nM, 16 nM, 80 nM, 400 nM, […] in duplicates) for 24 hours. For positive control, cells activated with CDDO or Nrf2 agonists described in literature. Following 24 hours incubation, the media was removed and Luciferase Detection Reagent (LDR) added. The firefly luciferase activity was quantified using a plate reader. Results were normalized by positive and negative controls.
A general note: In a reporter assay the amount or activity of a reporter protein is the signal.

The mark [4] stands for this setting: second line of cell, read-out: AHR abEC50.

Where two headings read alike, the source gives them in different places.

Take `CC(C)c1c(O)cc(-c2ccc3cnccc3c2F)cc1F` [Compound 139]: in experiment [1], the “M1 assay IL6 -max % inhibition (% to no treatment)” value was 85.80% and the IC50 – broadly, the concentration needed to halve the response being measured – turned out to be 5 nM. As for `CC(C)c1ncc(/C=C/c2cccc(F)c2)cc1O` [Compound 113, (E)-5-(3-fluorostyryl)-2-isopropylpyridin-3-ol], in experiment [1], the “M1 assay IL6 -max % inhibition (% to no treatment)” value is recorded as 67.80% and the half-maximal inhibitory concentration (IC50) came to 120 nM. Also, the EC50 in experiment [2] (setting [4]) was 298 nM. Consider `COc1cc(Oc2ccccc2)cc(O)c1C(C)C` [Compound 133, 2-isopropyl-3-methoxy-5-phenoxyphenol], for which the EC50 was greater than 400 nM in experiment [3] and 233 nM in experiment [2] (setting [4]). On to `CC(C)c1c(O)cc(-c2cc(F)c3ncccc3c2)cc1F` [Compound 145], for which, in experiment [1], the “M1 assay IL6 -max % inhibition (% to no treatment)” value came to 94.10% and the 50% inhibitory concentration (IC50) amounted to 1.9 nM. Turning to `CC(C)c1ncc(/C=C/c2ccccc2F)cc1O` [Compound 112, 5-[(E)-2-(2-fluorophenyl)ethenyl]-2-isopropylpyridin-3-ol], the results for the EC50 in experiment [3] and in experiment [2] (setting [4]) were 97 nM and 99 nM, respectively. Also, the “M1 assay IL6 -max % inhibition (% to no treatment)” value in experiment [1] amounted to 77.90%. The IC50 in experiment [1] was 1.57 nM. In the case of `CCCc1c(O)cc(-c2ccc3c(C)ccnc3c2)cc1F` [Compound 161], in experiment [1], the “M1 assay IL6 -max % inhibition (% to no treatment)” value was found to be 91.30% and the half-maximal inhibitory concentration (IC50) was found to be 1.19 nM. Turning to `Cc1ccnc2cc(-c3cc(O)c(C(C)C)c(F)c3)ccc12` [Compound 147], in experiment [1], the “M1 assay IL6 -max % inhibition (% to no treatment)” value is recorded as 91.60% and the concentration for half-maximal inhibition (IC50) amounted to 0.03 nM. For `CC(C)Oc1cc(/C=C/c2ccccc2)cc(O)n1` [Compound 106, (E)-6-isopropoxy-4-styrylpyridin-2-ol], the EC50 was greater than 400 nM in experiment [3] and 343 nM in experiment [2] (setting [4]). Taken in the same sequence, the figures for `COc1cc(/C=C/c2ccccc2)cc(O)c1C(C)(C)O` [Compound 111] were 57 nM and 39 nM.

In the case of `CC(C)c1c(O)cc(-c2ccc3ncccc3c2F)cc1F` [Compound 140], in experiment [1], the “M1 assay IL6 -max % inhibition (% to no treatment)” value stood at 92.30% and the IC50 stood at 0.13 nM. On the same counts, the results for `CC(C)c1c(O)cc(-c2cc(F)c3cnc(N)nc3c2)cc1F` [Compound 149] are 91.10% and 0.5 nM.

Take `CC(C)c1ncc(-c2cnc3ccccc3c2)cc1O` [Compound 99]: the values for the EC50 in experiment [3] and in experiment [2] (setting [4]) were 100 nM and greater than 100 nM, respectively.

For the compound `CC(C)c1c(O)cc(-c2ccc3cc(F)ccc3n2)cc1F` [Compound 143], in experiment [1], the “M1 assay IL6 -max % inhibition (% to no treatment)” value was 91.80% and the IC50 is 2.7 nM. Take `Cc1ccnc2cc(-c3cc(O)c(C(C)C)c(O)c3)ccc12` [Compound 22]: in experiment [1], the “M1 assay IL6 -max % inhibition (% to no treatment)” value was 77.20% and the IC50 was 0.05 nM. The EC50 in experiment [2] (setting [4]) came out at 2.12 nM.

For `C=C(C)c1c(OC)cc(/C=C/c2ccccc2)cc1OC` [Compound 110, 1,3-dimethoxy-5-[(E)-2-phenylethenyl]-2-(prop-1-en-2-yl)benzene], the EC50 in experiment [3] and in experiment [2] (setting [4]) was greater than 100 nM in each case. As to `CC(C)c1c(O)cc(-c2nc3ccccc3[nH]2)cc1O` [Compound 50], the EC50 in experiment [3] was 20 nM; in experiment [2] (setting [4]), 17.4 nM. Taken in the same sequence, the figures for `CC(C)c1ncc(-c2nc3ccccc3o2)cc1N` [Compound 121, 5-(1,3-benzoxazol-2-yl)-2-isopropylpyridin-3-amine] were 120 nM and greater than 100 nM. On the same counts, the results for `COc1cc(/C=C/c2ccccc2)cc(OC)c1C(C)=O` [Compound 107, 1-{2,6-dimethoxy-4-[(E)-2-phenylethenyl]phenyl} ethenone] are greater than 100 nM and greater than 100 nM. On to `CC(C)c1c(O)cc(-c2cc(F)c3cnc(N)nc3c2)cc1O` [Compound 39], for which, in experiment [1], the “M1 assay IL6 -max % inhibition (% to no treatment)” value amounted to 89.60% and the IC50 was found to be 0.2 nM. Besides, in experiment [2] (setting [4]), the EC50 is 3.58 nM.

In the case of `CCCc1c(O)cc(-c2cnc3c(F)c(F)ccc3c2)cc1F` [Compound 155], in experiment [1], the “M1 assay IL6 -max % inhibition (% to no treatment)” value came to 89.10% and the IC50 was 3.5 nM. Consider `CC(C)c1c(O)cc(/C=C/c2ccccc2)cc1F` [Compound 135], for which, in experiment [1], the “M1 assay IL6 -max % inhibition (% to no treatment)” value came to 95.30% and the half-maximal inhibitory concentration (IC50) was found to be 1.7 nM. The EC50 in experiment [2] (setting [4]) is 38.6 nM.

Regarding `CC(C)c1ncc(-c2cnc3ccccc3c2)cc1N` [Compound 120, 2-isopropyl-5-(quinolin-3-yl) pyridin-3-amine], in experiment [2] (setting [4]), the EC50 is greater than 100 nM. Still for that read-out and setting: with `CC(C)c1c(O)cc(-c2cc(F)c3ncccc3c2F)cc1O` [Compound 12] the figure was greater than 100 nM; with `CC(C)c1ncc(-c2ncnc3ccccc23)cc1O` [Compound 92], greater than 100 nM; with `CC(C)c1ncc(/C=C/c2ccccc2)cc1N` [Compound 117, 2-isopropyl-5-[(E)-2-phenylethenyl]pyridin-3-amine], greater than 100 nM. On the same count and under the same terms, with `Cc1ccnc2c(-c3cnc(C(C)C)c(O)c3)ccnc12` [Compound 94] the figure was greater than 100 nM; with `CNc1ccnc2ccc(-c3cc(O)c(C(C)C)c(O)c3)cc12` [Compound 16], greater than 100 nM; with `CC(C)c1c(O)cc(-c2cc(C(F)(F)F)c3cc(F)ccc3n2)cc1O` [Compound 1], 25.2 nM. Take `CCCc1c(O)cc(/C=C/c2ccccc2)cc1F` [Compound 125, 3-fluoro-5-[(E)-2-phenylethenyl]-2-propylphenol]: in experiment [1], the “M1 assay IL6 -max % inhibition (% to no treatment)” value amounted to 91.70% and the half-inhibitory concentration (IC50) is 1.35 nM. Moreover, the EC50 in experiment [2] (setting [4]) is 11.5 nM. Consider `CC(C)c1c(O)cc(-c2cnc3ccc(F)cc3c2)cc1O` [Compound 11], for which the EC50 in experiment [2] (setting [4]) is greater than 100 nM. As for `CC(C)c1c(O)cc(-c2ccc3ccccc3n2)cc1O` [Compound 47], the EC50 in experiment [3] was 530 nM; in experiment [2] (setting [4]), 4.21 nM.

On to `CC(C)c1c(O)cc(-c2cc(N)c3ccccc3n2)cc1O` [Compound 24], for which the EC50 in experiment [2] (setting [4]) is greater than 100 nM. Regarding `CC(C)c1ncc(-c2ccc3nccnc3c2)cc1O` [Compound 91], the EC50 in experiment [2] (setting [4]) is greater than 100 nM. On the same count and under the same terms, with `CC(C)c1c(O)cc(-c2ccc3cc(F)ccc3n2)cc1O` [Compound 9] the figure was 20.9 nM. Same read-out and setting: under `CC(C)c1c(O)cc(Sc2ccccc2)cc1O` [Compound 129, 2-isopropyl-5-(phenylthio) benzene-1,3-diol] stands greater than 400 nM; under `COc1cc2ncccc2cc1-c1cnc(C(C)C)c(O)c1` [Compound 72], greater than 100 nM. Consider `CC(C)c1ncc(/C=C/c2ccc(F)cc2)cc1O` [Compound 114, 5-[(E)-2-(4-fluorophenyl)ethenyl]-2-isopropylpyridin-3-ol], for which the EC50 in experiment [3] was determined as 19 nM; in experiment [2] (first line of cell, read-out: AHR reEC50), 143 nM; in experiment [2] (setting [4]), 120 nM. In addition, the “AHR % activation to Tapinarof at 1 μM” value in experiment [2] (24 hours, value in brackets) was 88.5%.
